Among the data in patent US20260365628A1, “SUBSTITUTED 3,4-DIHYDROQUINOLINONE INHIBITORS OF TSHR” (Septerna, Inc., priority 2022, published 2026) are IC50 values, retold here.

Each structure is given as a SMILES string.

T1 sequence (P16473 21-764): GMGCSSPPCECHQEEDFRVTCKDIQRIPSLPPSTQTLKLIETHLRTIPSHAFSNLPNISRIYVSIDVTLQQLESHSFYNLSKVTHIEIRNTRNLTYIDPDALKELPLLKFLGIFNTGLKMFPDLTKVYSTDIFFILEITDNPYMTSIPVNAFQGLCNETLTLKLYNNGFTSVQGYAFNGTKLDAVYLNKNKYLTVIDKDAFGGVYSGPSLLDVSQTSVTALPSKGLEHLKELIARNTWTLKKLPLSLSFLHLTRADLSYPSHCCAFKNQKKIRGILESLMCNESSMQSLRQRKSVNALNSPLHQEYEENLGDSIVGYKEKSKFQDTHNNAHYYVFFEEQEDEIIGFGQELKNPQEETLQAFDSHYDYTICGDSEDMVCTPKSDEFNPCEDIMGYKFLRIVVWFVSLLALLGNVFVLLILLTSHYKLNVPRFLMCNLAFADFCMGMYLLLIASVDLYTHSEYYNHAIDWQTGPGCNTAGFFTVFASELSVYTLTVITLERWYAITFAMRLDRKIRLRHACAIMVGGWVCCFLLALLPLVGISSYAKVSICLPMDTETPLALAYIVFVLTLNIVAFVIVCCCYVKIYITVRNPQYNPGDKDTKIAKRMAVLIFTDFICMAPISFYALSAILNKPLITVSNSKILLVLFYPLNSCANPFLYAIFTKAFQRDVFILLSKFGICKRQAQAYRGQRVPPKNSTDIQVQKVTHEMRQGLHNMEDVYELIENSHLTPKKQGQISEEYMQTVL

The test concerns the target T1, hTSHR (Homo sapiens, UniProt P16473).
T1 construct: expressed in transfected cells
Nature of the test: hTSHR TR-FRET cAMP Assay (inhibition of M22-stimulated cAMP production). In kind it is cell-based. The following applies: Expi293F Inducible cells stably expressing hTSHR; cAMP HTRF; stimulated with EC80 of anti-TSHR antibody M22; 15 min compound preincubation, 30 min at 37° C.; read-out: Activity (IC50 bins). An outline of the steps: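 Readout was a cAMP HTRF ratio of 655/620 nm after lysis, scaled between the EC80 M22 signal (0% inhibition) and no-agonist vehicle (100%). Frozen induced Expi293F-hTSHR cells saw test compounds (0.5% DMSO) for 15 min at 37 °C before 30 min of M22 stimulation at EC80.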
In general terms: Time-resolved FRET reads energy transfer from a long-lived donor to a nearby acceptor.
In the case of `O=C(Nc1ccc2c(c1)ncc(=O)n2Cc1ccccc1)C1CCCC1` [Example 197, N-(1-benzyl-2-oxo-1,2 dihydroquinoxalin-6-yl)cyclopentanecar-boxamide], the IC50 (as a rule, the concentration needed to halve the response being measured) was greater than 1000 nM. Next, `CC(C)(NC(=O)Nc1ccc2c(c1)ncc(=O)n2Cc1ccccc1)C(F)(F)F` [Example 198, 1-(1-benzyl-2-oxo-1,2-dihydroquinoxalin-6-yl)-3-(1,1,1-trifluoro-2-methylpropan-2-yl)urea]: 100 to 1000 nM; `CC(C)(NC(=O)Nc1ccc2c(c1)ncc(=O)n2Cc1ccccc1)C(F)F` [Example 199, 1-(1-benzyl-2-oxo-1,2-dihydroquinoxalin-6-yl)-3-(1,1-difluoro-2-methylpropan-2-yl)urea]: 100 to 1000 nM.

With `C[C@@H](c1cccc(OC(F)(F)F)c1)n1c(=O)cnc2cc(NC(=O)NC3(C)CCC3)ccc21` [Example 200, (S)-1-(1-methylcyclobutyl)-3-(2-oxo-1-(1-(3-(trifluoromethoxy)phenyl)ethyl)-1,2-dihydroquinoxalin-6-yl)urea], the IC50 was less than 100 nM. To `C[C@@H](c1cccc(OC(F)(F)F)c1)n1c(=O)cnc2cc(NC(=O)NCC(C)(C)C)ccc21` [Example 201, (S)-1-neopentyl-3-(2-oxo-1-(1-(3-(trifluoromethoxy)phenyl)ethyl)-1,2-dihydroquinoxalin-6-yl)urea] belongs 100 to 1000 nM; to `C[C@@H](c1cccc(OC(F)(F)F)c1)n1c(=O)cnc2cc(NC(=O)CCc3cccc(C(F)(F)F)c3)ccc21` [Example 202, (S)-N-(2-oxo-1-(1-(3-(trifluoromethoxy)phenyl)ethyl)-1,2-dihydroquinoxalin-6-yl)-3-(3-(trifluoromethyl)phenyl) propanamide], less than 100 nM. To `C[C@@H](c1cccc(OC(F)(F)F)c1)n1c(=O)cnc2cc(NC(=O)NC3(C)CCCC3)ccc21` [Example 203, (S)-1-(1-methylcyclopentyl)-3-(2-oxo-1-(1-(3-(trifluoromethoxy)phenyl)ethyl)-1,2-dihydroquinoxalin-6-yl)urea] belongs 100 to 1000 nM; to `C[C@@H](c1cccc(OC(F)(F)F)c1)n1c(=O)cnc2cc(NC(=O)NC3CC(F)(F)C3)ccc21` [Example 204, (S)-1-(3,3-difluorocyclobutyl)-3-(2-oxo-1-(1-(3-(trifluoromethoxy)phenyl)ethyl)-1,2-dihydroquinoxalin-6-yl)urea], 100 to 1000 nM; to `C[C@@H](c1cccc(OC(F)(F)F)c1)n1c(=O)cnc2cc(NC(=O)NC3CCC3)ccc21` [Example 205, (S)-1-cyclobutyl-3-(2-oxo-1-(1-(3-(trifluoromethoxy)phenyl)ethyl)-1,2-dihydroquinoxalin-6-yl)urea], 100 to 1000 nM. To `C[C@@H](c1cccc(OC(F)(F)F)c1)n1c(=O)cnc2cc(NC(=O)NC34CC(C3)C4)ccc21` [Example 206, (S)-1-(bicycl[1.1.1]pentan-1-yl)-3-(2-oxo-1-(1-(3-(trifluoromethoxy)phenyl)ethyl)-1,2-dihydroquinoxalin-6-yl)urea] belongs 100 to 1000 nM; to `CC(C)CCNC(=O)Nc1ccc2c(c1)ncc(=O)n2[C@@H](C)c1cccc(OC(F)(F)F)c1` [Example 207, (S)-1-isopentyl-3-(2-oxo-1-(1-(3-(trifluoromethoxy)phenyl)ethyl)-1,2-dihydroquinoxalin-6-yl)urea], 100 to 1000 nM. Take `C[C@@H](c1cccc(OC(F)(F)F)c1)n1c(=O)cnc2cc(NC(=O)NC(C)(C)C(F)(F)F)ccc21` [Example 208, (S)-1-(2-oxo-1-(1-(3-(trifluoromethoxy)phenyl)ethyl)-1,2-dihydroquinoxalin-6-yl)-3-(1,1,1-trifluoro-2-methylpropan-2-yl)urea]: the IC50 was 100 to 1000 nM. `Cc1c(NC(=O)NC(C)(C)C)ccc2c1ncc(=O)n2[C@@H](C)c1cccc(OC(F)(F)F)c1` [Example 209, (S)-1-(tert-butyl)-3-(5-methyl-2-oxo-1-(1-(3-(trifluoromethoxy)phenyl)ethyl)-1,2-dihydroquinoxalin-6-yl)urea]: the IC50 was in the range of 100 to 1000 nM. Next, `C[C@@H](c1cccc(OC(F)(F)F)c1)n1c(=O)cnc2cc(NC(=O)NC3(C)CCCCC3)ccc21` [Example 210, (S)-1-(1-methylcyclohexyl)-3-(2-oxo-1-(1-(3-(trifluoromethoxy)phenyl)ethyl)-1,2-dihydroquinoxalin-6-yl)urea]: less than 100 nM. To `C[C@@H](c1cccc(OC(F)(F)F)c1)n1c(=O)cnc2cc(NC(=O)NC34CCC(CC3)C4)ccc21` [Example 211, (S)-1-(bicyclo[2.2.1]heptan-1-yl)-3-(2-oxo-1-(1-(3-(trifluoromethoxy)phenyl)ethyl)-1,2-di-hydroquinoxalin-6-yl)urea] belongs less than 100 nM; to `C[C@@H](c1cccc(OC(F)(F)F)c1)n1c(=O)cnc2cc(NC(=O)NC3(C)COC3)ccc21` [Example 212], greater than 1000 nM; to `C[C@@H](c1cccc(OC(F)(F)F)c1)n1c(=O)cnc2cc(NC(=O)NC34CCC(C3)C4)ccc21` [Example 213, (S)-1-(bicyclo[2.1.1]hexan-1-yl)-3-(2-oxo-1-(1-(3-(trifluoromethoxy)phenyl)ethyl)-1,2-dihydroquinoxalin-6-yl)urea], less than 100 nM. Next, `C[C@@H](c1cccc(OC(F)(F)F)c1)n1c(=O)cnc2cc(NC(=O)NC3(C(F)(F)F)CCC3)ccc21` [Example 214, (S)-1-(2-oxo-1-(1-(3-(trifluoromethoxy)phenyl)ethyl)-1,2-dihydroquinoxalin-6-yl)-3-(1-(trifluoromethyl)cyclobutyl)urea]: 100 to 1000 nM.

For the compound `COCC1(NC(=O)Nc2ccc3c(c2)ncc(=O)n3[C@@H](C)c2cccc(OC(F)(F)F)c2)CCC1` [Example 215, (S)-1-(1-(methoxymethyl)cyclobutyl)-3-(2-oxo-1-(1-(3-(tri-fluoromethoxy)phenyl)ethyl)-1,2-dihydroquinoxalin-6-yl)urea], the IC50 was 100 to 1000 nM. Regarding `C[C@@H](c1cccc(OC(F)(F)F)c1)n1c(=O)cnc2cc(NC(=O)NC3CCC(F)(F)CC3)ccc21` [Example 216], the IC50 is 100 to 1000 nM. Next, `C[C@@H](c1cccc(OC(F)(F)F)c1)n1c(=O)cnc2cc(NC(=O)NC3(C(F)(F)F)CCCC3)ccc21` [Example 217]: 100 to 1000 nM; `C[C@@H](c1cccc(OC(F)(F)F)c1)n1c(=O)cnc2c(Cl)c(NC(=O)NC(C)(C)C)ccc21` [Example 218, (S)-1-(tert-butyl)-3-(5-chloro-2-oxo-1-(1-(3-(trifluoromethoxy)phenyl)ethyl)-1,2-dihydroquinoxalin-6-yl)urea]: 100 to 1000 nM. Next, `C[C@@H](c1cccc(OC(F)(F)F)c1)n1c(=O)cnc2cc(NC(=O)NC3(C)CC(F)(F)C3)ccc21` [Example 221, (S)-1-(3,3-difluoro-1-methylcyclobuty 1)-3-(2-oxo-1-(1-(3-(trifluoromethoxy)phenyl)ethyl)-1,2-dihydroquinoxalin-6-yl)urea]: 100 to 1000 nM. Next, `C[C@@H](c1cccc(OC(F)(F)F)c1)n1c(=O)cnc2cc(NC(=O)NC3(C(F)(F)F)COC3)ccc21` [Example 222]: 100 to 1000 nM; `C[C@@H](c1cccc(OC(F)(F)F)c1)n1c(=O)cnc2cc(NC(=O)N[C@H]3C[C@H](C(F)(F)F)C3)ccc21` [Example 223, 1-(2-oxo-1-((S)-1-(3-(trifluoromethoxy)phenyl)ethyl)-1,2-dihydroquinoxalin-6-yl)-3-((1r,3R)-3-(trifluoromethyl)cyclobutyl)urea]: 100 to 1000 nM.

Turning to `C[C@@H](c1cccc(OC(F)(F)F)c1)n1c(=O)cnc2cc(NC(=O)N[C@H]3C[C@@H](C(F)(F)F)C3)ccc21` [Example 224, 1-(2-oxo-1-((S)-1-(3-(trifluoromethoxy)phenyl)ethyl)-1,2-dihydroquinoxalin-6-yl)-3-((1s,3S)-3-(trifluoromethyl)cyclobutyl)urea], the IC50 is 100 to 1000 nM. Next, `C[C@@H](c1cccc(OC(F)(F)F)c1)n1c(=O)cnc2cc(NC(=O)NC3(C(F)(F)F)CC(F)(F)C3)ccc21` [Example 225, (S)-1-(3,3-difluoro-1-(trifluoromethyl)cyclobutyl)-3-(2-oxo-1-(1-(3-(trifluoromethoxy)phenyl)ethyl)-1,2-dihydroquinoxalin-6-yl)urea]: 100 to 1000 nM; `C[C@H]1Oc2cc(NC(=O)NC3(C)CCC3)ccc2N(Cc2cccc(C(F)(F)F)n2)C1=O` [Example 226, 1-[(2R)-2-methyl-3-oxo-4-{[6-(trifluoromethyl)pyridin-2-yl]methyl}-2H-1,4-benzoxazin-7-yl]-3-(1-methylcyclobutyl)urea]: less than 100 nM. Next, `C[C@H]1Oc2cc(NC(=O)NC3(C)CCCC3)ccc2N(Cc2cccc(C(F)(F)F)n2)C1=O` [Example 227, (R)-1-(2-methyl-3-oxo-4-((6-(trifluoromethyl)pyridin-2-yl)methyl)-3,4-dihydro-2H-benzo[b][1,4]oxazin-7-yl)-3-(1-methylcyclopentyl) urea]: less than 100 nM. To `C[C@H]1Oc2cc(NC(=O)NC3CCCCC3)ccc2N(Cc2cccc(C(F)(F)F)n2)C1=O` [Example 228, (R)-1-cyclohexyl-3-(2-methyl-3-oxo-4-((6-(trifluoromethyl)pyridin-2-yl)methyl)-3,4-dihydro-2H-benzo[b][1,4]oxazin-7-yl)urea] belongs less than 100 nM. With `C[C@H]1Oc2cc(NC(=O)NC3(C)CCCCC3)ccc2N(Cc2cccc(C(F)(F)F)n2)C1=O` [Example 229, (R)-1-(2-methyl-3-oxo-4-((6-(trifluoromethyl)pyridin-2-yl)methyl)-3,4-dihydro-2H-benzo[b][1,4]oxazin-7-yl)-3-(1-methylcyclohexyl) urea], the IC50 was less than 100 nM.

Consider `C[C@H]1Oc2cc(NC(=O)NC3CC4CC4C3)ccc2N(Cc2cccc(C(F)(F)F)n2)C1=O` (stereo partly drawn) [Example 230, 1-(bicyclo[3.1.0]hexan-3-yl)-3-((R)-2-methyl-3-oxo-4-((6-(trifluoromethyl)pyridin-2-yl)methyl)-3,4-dihydro-2H-benzo[b][1,4]oxazin-7-yl)urea], for which the IC50 is 100 to 1000 nM.
